Results as given in ChEMBL document CHEMBL3596091, “Synthesis and evaluation of novel fluorinated pyrazolo-1,2,3-triazole hybrids as antimycobacterial agents” (Bioorg Med Chem Lett, 2015).
≈ marks a conversion by molar mass, not a printed value.

Tests used:
[1] = tested on: A549; experiment: Cytotoxicity against human A549 cells incubated for 48 hrs by SRB assay; assay type: cell-based; conditions: A549, 48 h
[2] = tested on: Mycolicibacterium smegmatis; experiment: Antimycobacterial activity against Mycobacterium smegmatis str. MC2 155 incubated for 30 hrs by turbidometric assay; assay type: functional; conditions: str. MC2 155, 30 h

## O=C(Cn1cc(-c2ccccc2)nn1)Nc1c(C(F)(F)F)n[nH]c1-c1ccccc1
[1]
  IC50: 52.2 µg/mL (≈ 127 µM)
[2]
  MIC: 35.9 µg/mL (≈ 87.1 µM)

## O=C(Cn1cc(-c2ccc(OC(F)(F)F)cc2)nn1)Nc1c(C(F)(F)F)n[nH]c1-c1ccccc1
[1]
  IC50: 45.3 µg/mL (≈ 91.2 µM)
[2]
  MIC: 35.4 µg/mL (≈ 71.3 µM)

## O=C(Cn1cc(-c2ccc(-c3ccccc3)cc2)nn1)Nc1c(C(F)(F)F)n[nH]c1-c1ccccc1
[1]
  IC50: 57 µg/mL (≈ 117 µM)
[2]
  MIC: 31.8 µg/mL (≈ 65 µM)

## CC(C)(C)c1ccc(-c2cn(CC(=O)Nc3c(C(F)(F)F)n[nH]c3-c3ccccc3)nn2)cc1
[1]
  IC50: 25.8 µg/mL (≈ 55.2 µM)
[2]
  MIC: > 100 µg/mL

## CCCCCc1ccc(-c2cn(CC(=O)Nc3c(C(F)(F)F)n[nH]c3-c3ccccc3)nn2)cc1
[1]
  IC50: > 100 µg/mL
[2]
  MIC: 35.4 µg/mL (≈ 73.3 µM)

## COc1ccc(-c2cn(CC(=O)Nc3c(C(F)(F)F)n[nH]c3-c3ccccc3)nn2)c(C)c1
[1]
  IC50: 54 µg/mL (≈ 118 µM)
[2]
  MIC: 85.6 µg/mL (≈ 188 µM)

## Cc1cccc(-c2cn(CC(=O)Nc3c(C(F)(F)F)n[nH]c3-c3ccccc3)nn2)c1
[1]
  IC50: 60.6 µg/mL (≈ 142 µM)
[2]
  MIC: 29.9 µg/mL (≈ 70.2 µM)

## O=C(Cn1cc(-c2ccccc2C(F)(F)F)nn1)Nc1c(C(F)(F)F)n[nH]c1-c1ccccc1
[1]
  IC50: 64.2 µg/mL (≈ 134 µM)
[2]
  MIC: 53 µg/mL (≈ 110 µM)

## CCOC(=O)c1cn(CC(=O)Nc2c(C(F)(F)F)n[nH]c2-c2ccccc2)nn1
[1]
  IC50: > 100 µg/mL
[2]
  MIC: 27.7 µg/mL (≈ 67.9 µM)

## CCCCc1cn(CC(=O)Nc2c(C(F)(F)F)n[nH]c2-c2ccccc2)nn1
[1]
  IC50: > 100 µg/mL
[2]
  MIC: 65.5 µg/mL (≈ 167 µM)

## O=C(Cn1cc(COc2cccc3c(C(F)(F)F)cc(=O)oc23)nn1)Nc1c(C(F)(F)F)n[nH]c1-c1ccccc1
[1]
  IC50: > 100 µg/mL
[2]
  MIC: 53.7 µg/mL (≈ 92.8 µM)

## O=C(Cn1cc(CNc2cccc(C(F)(F)F)c2)nn1)Nc1c(C(F)(F)F)n[nH]c1-c1ccccc1
[1]
  IC50: 25.3 µg/mL (≈ 49.7 µM)
[2]
  MIC: 99.6 µg/mL (≈ 196 µM)

## COc1cccc(NCc2cn(CC(=O)Nc3c(C(F)(F)F)n[nH]c3-c3ccccc3)nn2)c1
[1]
  IC50: 38.3 µg/mL (≈ 81.3 µM)
[2]
  MIC: 53.9 µg/mL (≈ 114 µM)

## COc1ccc(NCc2cn(CC(=O)Nc3c(C(F)(F)F)n[nH]c3-c3ccccc3)nn2)cc1OC
[1]
  IC50: > 100 µg/mL
[2]
  MIC: 58.3 µg/mL (≈ 116 µM)

## COc1cc(NCc2cn(CC(=O)Nc3c(C(F)(F)F)n[nH]c3-c3ccccc3)nn2)cc(OC)c1OC
[1]
  IC50: > 100 µg/mL
[2]
  MIC: 78.3 µg/mL (≈ 147 µM)

## Cc1cccc(C)c1NCc1cn(CC(=O)Nc2c(C(F)(F)F)n[nH]c2-c2ccccc2)nn1
[1]
  IC50: 52.9 µg/mL (≈ 113 µM)
[2]
  MIC: 64.1 µg/mL (≈ 136 µM)

## COc1ccc(C(=O)c2cn(CC(=O)Nc3c(C(F)(F)F)n[nH]c3-c3ccccc3)nn2)cc1
[1]
  IC50: 80.7 µg/mL (≈ 172 µM)
[2]
  MIC: 15.3 µg/mL (≈ 32.6 µM)

## COc1ccc(C(=O)c2cn(CC(=O)Nc3c(C(F)(F)F)n[nH]c3-c3ccccc3)nn2)cc1OC
[1]
  IC50: 26.8 µg/mL (≈ 53.6 µM)
[2]
  MIC: 65.7 µg/mL (≈ 131 µM)

## O=C(Cn1cc(C(=O)c2cn(-c3ccccc3)nc2-c2ccccc2)nn1)Nc1c(C(F)(F)F)n[nH]c1-c1ccccc1
[1]
  IC50: 68 µg/mL (≈ 117 µM)
[2]
  MIC: 28.8 µg/mL (≈ 49.5 µM)

## O=C(Cn1cc(C(=O)c2cn(-c3ccccc3)nc2-c2ccc(Cl)cc2)nn1)Nc1c(C(F)(F)F)n[nH]c1-c1ccccc1
[1]
  IC50: > 100 µg/mL
[2]
  MIC: > 100 µg/mL

## Cc1ccc(-c2nn(-c3ccccc3)cc2C(=O)c2cn(CC(=O)Nc3c(C(F)(F)F)n[nH]c3-c3ccccc3)nn2)cc1
[1]
  IC50: > 100 µg/mL
[2]
  MIC: 94.5 µg/mL (≈ 158 µM)

## COc1ccc(-c2nn(-c3ccccc3)cc2C(=O)c2cn(CC(=O)Nc3c(C(F)(F)F)n[nH]c3-c3ccccc3)nn2)cc1
[1]
  IC50: 59.6 µg/mL (≈ 97.3 µM)
[2]
  MIC: 25.3 µg/mL (≈ 41.2 µM)

## NNC(=O)c1cn(CC(=O)Nc2c(C(F)(F)F)n[nH]c2-c2ccccc2)nn1
[1]
  IC50: 67.6 µg/mL (≈ 171 µM)
[2]
  MIC: 33.9 µg/mL (≈ 85.9 µM)

## O=C(Cn1cc(C(=O)N/N=C/c2ccc(C(F)(F)F)cc2)nn1)Nc1c(C(F)(F)F)n[nH]c1-c1ccccc1
[1]
  IC50: > 100 µg/mL
[2]
  MIC: > 100 µg/mL

## O=C(Cn1cc(C(=O)N/N=C/c2ccccc2C(F)(F)F)nn1)Nc1c(C(F)(F)F)n[nH]c1-c1ccccc1
[1]
  IC50: > 100 µg/mL
[2]
  MIC: 16.2 µg/mL (≈ 29.4 µM)

## O=C(Cn1cc(C(=O)N/N=C/c2cccc(Oc3ccccc3)c2)nn1)Nc1c(C(F)(F)F)n[nH]c1-c1ccccc1
[1]
  IC50: > 100 µg/mL
[2]
  MIC: 16.6 µg/mL (≈ 28.9 µM)

## COc1ccc(/C=N/NC(=O)c2cn(CC(=O)Nc3c(C(F)(F)F)n[nH]c3-c3ccccc3)nn2)cc1
[1]
  IC50: > 100 µg/mL
[2]
  MIC: 45.6 µg/mL (≈ 88.9 µM)

## COc1ccc(/C=N/NC(=O)c2cn(CC(=O)Nc3c(C(F)(F)F)n[nH]c3-c3ccccc3)nn2)cc1OC
[1]
  IC50: > 100 µg/mL
[2]
  MIC: 41.3 µg/mL (≈ 76.1 µM)

## COc1cccc2c1C(=O)c1c(O)c3c(c(O)c1C2=O)C[C@@](O)(C(=O)CO)C[C@@H]3O[C@H]1C[C@H](N)[C@H](O)[C@H](C)O1 [DOXORUBICIN]
[1]
  IC50: 8.5 µg/mL (≈ 15.6 µM)

## NNC(=O)c1ccncc1 [ISONIAZID]
[2]
  MIC: 12.1 µg/mL (≈ 88 µM)

## CO[C@H]1/C=C/O[C@@]2(C)Oc3c(C)c(O)c4c(O)c(c(/C=N/N5CCN(C)CC5)c(O)c4c3C2=O)NC(=O)/C(C)=C\C=C\[C@H](C)[C@H](O)[C@@H](C)[C@@H](O)[C@@H](C)[C@H](OC(C)=O)[C@@H]1C [RIFAMPIN]
[2]
  MIC: 2.15 µg/mL (≈ 2.61 µM)
